Test results taken from patent US9809595B2 (priority 2013, dated 2017).

Assays:
[1] = test system: Salmonella typhimurium strain SJW1103; assay: Bacterial growth assay; assay type: cell-based; conditions: 5 μl of 100 mM compound in DMSO added to 10 ml LB, 303 K, OD600 read at 2, 4, 6, 8 and 10 hr; FIG. 6
Procedure: The effect of the candidate compounds on the viability of bacteria cultures were first tested before analyzing their effect on the flexibility of FlhBC. 80 compounds out of the 237 compounds were purchased from KISHIDA CHEMICAL Co., Ltd according to the ranking. The Salmonella typhimurium strain SJW1103 was grown in LB medium at 303 K. Overnight cultures were diluted in Fresh LB medium to an optical density at 600 nm (OD600) of 0.1. Each of 5 μl of 100 mM candidate compounds solubilized in DMSO or DMSO alone as a control was added into 10 ml LB medium in 50-ml volume polypropylene conical tubes. For obtaining growth curves of the cell under the presence of each chemical, 0.2 ml of the culture volume were removed at every 2 h (2, 4, 6, 8 and 10 hr) and diluted with 1 ml of LB to measure absorbance at OD600.

[2] = test system: secretion of FlgD; assay: Secretion assay (Western blot of culture supernatant with anti-FlgD antibody); assay type: cell-based, Salmonella typhimurium; conditions: supernatant of 8.0 hr culture from the growth assay, strain SJW1103; FIG. 7a and 7b
Procedure: Then, effects of the selected compounds on different type III secretion phenotypes were assessed. 1 ml of the cell suspensions of 8.0 hr culture in the above-growth assay were centrifuged at 13,200 rpm (16,100 g) for 10 min. The supernatant fractions (0.9 ml) were fractionated into new tubes and mixed with 100% trichloroacetic acid thoroughly. The fractions were kept on ice at least 1 h to precipitate secreted proteins. After centrifugation at 15,400 rpm for 30 min, the precipitated supernatant fractions were resuspended in 0.02 ml of 1 M Tris base and stored −30° C. until use. Samples for SDS-PAGE analysis were prepared by adding 5× SDS loading Buffer and then heat at 95° C. for 5 min. SDS-PAGE analyses were carried out at the condition of 200V for 30 min using premade gels purchased from Bio-rad. Electro-blotting onto PVDF membrane was performed with iBlot from Invitrogen and the membranes were developed with Chromogenic Immuno-detection Kit (Invitrogen) using a custom antibody raised against FlgD, a flagellar protein (from Prof. Keiichi Namba, Osaka University). Images were digitized as gray scale color with ChemDoc (Bio-rad). Kaleidoscope (Bio-rad) was used as a molecular marker.

SMILES | effect on bacterial growth (growth curve, OD600) [1] | inhibition of FlgD secretion (type III secretion system) [2]
Cn1c(=O)c2c(ncn2CC(O)CO)n(C)c1=O (stereo not shown) [compound 47, 7-(2,3-dihydroxypropyl)-1,3-dimethyl-3,7-dihydro-1H-purine-2,6-dione] | slight growth delay | inhibit the secretion of FlgD
COc1cc(Cc2cnc(N)nc2N)cc(OC)c1OC [compound 64, 5-(3,4,5-Trimethoxybenzyl)pyrimidine-2,4-diamine] | slight growth delay | inhibit the secretion of FlgD
